# Data: ChEMBL document CHEMBL3351272, “Sequential synthesis of amino-1,4-naphthoquinone-appended triazoles and triazole-chromene hybrids and their antimycobacterial evaluation” (Eur J Med Chem, 2014)
# What was measured:
# [1] = test system: Mycobacterium tuberculosis; experiment: Antimycobacterial activity against Mycobacterium tuberculosis H37Rv assessed as growth inhibition by microdilution AlamarBlue broth assay; format: functional, organism-based
# [2] = test system: Mycobacterium tuberculosis; experiment: Ratio of cycloserine IC50 to compound IC50 for Mycobacterium tuberculosis H37Rv assessed as growth inhibition by microdilution AlamarBlue broth assay; format: functional
# [3] = test system: Mycobacterium tuberculosis; experiment: Ratio of pyrimethamine IC50 to compound IC50 for Mycobacterium tuberculosis H37Rv assessed as growth inhibition by microdilution AlamarBlue broth assay; format: functional
Compound,IC50 [1],IC90 [1],MIC [1],Ratio IC50 [2],Ratio IC50 [3]
N#CCn1cc(CN(C2=CC(=O)c3ccccc3C2=O)c2ccccc2Cl)nn1,11.2 µM,25.9 µM,50 µM,,
N#CCn1cc(CN(C2=CC(=O)c3ccccc3C2=O)c2ccc(F)cc2)nn1,2.81 µM,6.13 µM,15 µM,,
COc1cccc(N(Cc2cn(CC#N)nn2)C2=CC(=O)c3ccccc3C2=O)c1,16.3 µM,25.5 µM,50 µM,,
Cc1ccccc1N(Cc1cn(CC#N)nn1)C1=CC(=O)c2ccccc2C1=O,10.6 µM,19.8 µM,50 µM,,
N#CCn1cc(CN(C2=CC(=O)c3ccccc3C2=O)c2ccccc2)nn1,9.95 µM,21.9 µM,25 µM,,
CCOC(=O)Cn1cc(CN(C2=CC(=O)c3ccccc3C2=O)c2ccc(C)cc2)nn1,11.9 µM,27.9 µM,50 µM,,
CCOC(=O)Cn1cc(CN(C2=CC(=O)c3ccccc3C2=O)c2ccc(Br)cc2)nn1,8.46 µM,16.4 µM,25 µM,,
CCOC(=O)Cn1cc(CN(C2=CC(=O)c3ccccc3C2=O)c2ccc(Cl)cc2)nn1,3.28 µM,7.86 µM,25 µM,,
CCOC(=O)Cn1cc(CN(C2=CC(=O)c3ccccc3C2=O)c2ccc(F)cc2)nn1,17.2 µM,36.5 µM,50 µM,,
CCOC(=O)Cn1cc(CN(C2=CC(=O)c3ccccc3C2=O)c2cccc(OC)c2)nn1,18.6 µM,27.7 µM,50 µM,,
CCOC(=O)Cn1cc(CN(C2=CC(=O)c3ccccc3C2=O)c2ccccc2Cl)nn1,18.3 µM,36.5 µM,50 µM,,
C=CCn1cc(CN(C2=CC(=O)c3ccccc3C2=O)c2ccc(Cl)cc2)nn1,21.6 µM,45.1 µM,50 µM,,
C=CCn1cc(CN(C2=CC(=O)c3ccccc3C2=O)c2ccc(F)cc2)nn1,5.87 µM,14.6 µM,25 µM,,
C=CCn1cc(CN(C2=CC(=O)c3ccccc3C2=O)c2cccc(OC)c2)nn1,24.9 µM,36.4 µM,50 µM,,
C=CCn1cc(CN(C2=CC(=O)c3ccccc3C2=O)c2ccccc2C)nn1,15.3 µM,34.3 µM,50 µM,,
C=CCn1cc(CN(C2=CC(=O)c3ccccc3C2=O)c2ccccc2Cl)nn1,6.38 µM,12 µM,25 µM,,
C=CCn1cc(CN(C2=CC(=O)c3ccccc3C2=O)c2ccccc2)nn1,25.5 µM,55.4 µM,100 µM,,
Cc1ccc(N(Cc2cn(Cc3ccccc3)nn2)C2=CC(=O)c3ccccc3C2=O)cc1,17 µM,38.9 µM,50 µM,,
O=C1C=C(N(Cc2cn(Cc3ccccc3)nn2)c2ccc(Br)cc2)C(=O)c2ccccc21,28.7 µM,47.9 µM,100 µM,,
O=C1C=C(N(Cc2cn(Cc3ccccc3)nn2)c2ccc(Cl)cc2)C(=O)c2ccccc21,2.58 µM,15.1 µM,25 µM,,
COc1cccc(N(Cc2cn(Cc3ccccc3)nn2)C2=CC(=O)c3ccccc3C2=O)c1,24.9 µM,36.4 µM,50 µM,,
O=C1C=C(N(Cc2cn(Cc3ccccc3)nn2)c2ccccc2Cl)C(=O)c2ccccc21,15.3 µM,44.3 µM,50 µM,,

Compound,IC50 [1],IC90 [1],MIC [1],Ratio IC50 [2],Ratio IC50 [3]
O=C1C=C(N(Cc2cn(Cc3ccccc3)nn2)c2ccc(Cl)cc2Cl)C(=O)c2ccccc21,5.38 µM,9.97 µM,25 µM,,
Cc1ccc(N(Cc2cn(CC(=O)c3ccccc3)nn2)C2=CC(=O)c3ccccc3C2=O)cc1,14 µM,28.9 µM,50 µM,,
Cc1ccccc1N(Cc1cn(CC(=O)c2ccccc2)nn1)C1=CC(=O)c2ccccc2C1=O,19.1 µM,37.9 µM,50 µM,,
O=C(Cn1cc(CN(C2=CC(=O)c3ccccc3C2=O)c2ccc(Cl)cc2Cl)nn1)c1ccccc1,13.3 µM,27.9 µM,50 µM,,
Cc1ccc(N(Cc2cn(C3=CC(=O)c4ccccc4C3=O)nn2)C2=CC(=O)c3ccccc3C2=O)cc1,28.6 µM,37.7 µM,50 µM,,
O=C1C=C(N(Cc2cn(C3=CC(=O)c4ccccc4C3=O)nn2)c2ccc(Br)cc2)C(=O)c2ccccc21,19.2 µM,46.5 µM,50 µM,,
O=C1C=C(N(Cc2cn(C3=CC(=O)c4ccccc4C3=O)nn2)c2ccc(Cl)cc2)C(=O)c2ccccc21,7.2 µM,16.5 µM,25 µM,,
Cc1ccc(N(Cc2cn(-c3cc4ccccc4oc3=N)nn2)C2=CC(=O)c3ccccc3C2=O)cc1,23.9 µM,47.6 µM,50 µM,,
N=c1oc2ccccc2cc1-n1cc(CN(C2=CC(=O)c3ccccc3C2=O)c2ccc(F)cc2)nn1,8.57 µM,17.7 µM,25 µM,,
COc1cccc(N(Cc2cn(-c3cc4ccccc4oc3=N)nn2)C2=CC(=O)c3ccccc3C2=O)c1,18.6 µM,37.7 µM,50 µM,,
N=c1oc2ccccc2cc1-n1cc(CN(C2=CC(=O)c3ccccc3C2=O)c2ccccc2Cl)nn1,27.2 µM,36.5 µM,50 µM,,
Cc1ccc(N(Cc2cn(-c3cc4ccccc4oc3=N)nn2)C2=CC(=O)c3ccccc3C2=O)c(C)c1,21.6 µM,55.1 µM,100 µM,,
Cc1ccc(N(Cc2cn(-c3cc4cc(Br)ccc4oc3=N)nn2)C2=CC(=O)c3ccccc3C2=O)cc1,21.9 µM,44.6 µM,100 µM,,
N=c1oc2ccc(Cl)cc2cc1-n1cc(CN(C2=CC(=O)c3ccccc3C2=O)c2ccc(F)cc2)nn1,3.18 µM,9.86 µM,25 µM,,
Cc1ccc2oc(=N)c(-n3cc(CN(C4=CC(=O)c5ccccc5C4=O)c4ccccc4)nn3)cc2c1,18.6 µM,27.7 µM,50 µM,,
O=C1C=C(N(Cc2cn(Cc3ccccc3)nn2)c2ccc(C(F)(F)F)cc2)C(=O)c2ccccc21,1.87 µM,4.6 µM,10 µM,6,20
NCC[C@H](O)C(=O)N[C@@H]1C[C@H](N)[C@@H](O[C@H]2O[C@H](CN)[C@@H](O)[C@H](O)[C@H]2O)[C@H](O)[C@H]1O[C@H]1O[C@H](CO)[C@@H](O)[C@H](N)[C@H]1O [AMIKACIN],,0.08 µM,0.16 µM,,
N[C@@H]1CONC1=O [CYCLOSERINE],,,25 µM,,
CC[C@@H](CO)NCCN[C@@H](CC)CO [ETHAMBUTOL],< 1.56 µM,,12.5 µM,,
NNC(=O)c1ccncc1 [ISONIAZID],,0.29 µM,0.31 µM,,
CCc1nc(N)nc(N)c1-c1ccc(Cl)cc1 [PYRIMETHAMINE],37.4 µM,75 µM,100 µM,,
